Assay results reported in BindingDB's records for doi:10.1021/jm00154a024 (1986).

Test: The compound was tested for the inhibition of alanine racemase from Pseudomonas aeruginosa

CCC(=N)P(=O)(O)O
Ki: 8.5 mM
